Values joined by “and” are separate entries in the source; they are usually repeats but may differ in a detail not shown here. Identical values can stand only once.
Details: Fluid (supercritical or subcritical phases), Coaxial cylinder method

FCC(F)(F)F [1,1,1,2-tetrafluoroethane]
Details	thermal conductivity
299.29 K, 170 kPa	0.01287 W/m/K
299.63 K, 170 kPa	0.01279 W/m/K
318.97 K, 740 kPa	0.01489 W/m/K and 0.01486 W/m/K
319.14 K, 160 kPa	0.0146 W/m/K
345.58 K, 180 kPa	0.01711 W/m/K
346.36 K, 180 kPa	0.01739 W/m/K
348.54 K, 180 kPa	0.01732 W/m/K
351.84 K, 640 kPa	0.01763 W/m/K
363.88 K, 180 kPa	0.01891 W/m/K
365 K, 180 kPa	0.01891 W/m/K
365.41 K, 180 kPa	0.01893 W/m/K
365.69 K, 180 kPa	0.01893 W/m/K
366.52 K, 180 kPa	0.01892 W/m/K
366.8 K, 180 kPa	0.01893 W/m/K
372.42 K, 680 kPa	0.01975 W/m/K
372.43 K, 170 kPa	0.01968 W/m/K
372.43 K, 680 kPa	0.01965 W/m/K
374.18 K, 4090 kPa	0.0729 W/m/K
374.19 K, 4100 kPa	0.0708 W/m/K
374.21 K, 4120 kPa	0.068 W/m/K
374.22 K, 4142 kPa	0.0659 W/m/K
374.22 K, 4149 kPa	0.0654 W/m/K
374.23 K, 4187 kPa	0.0642 W/m/K
374.28 K, 4085 kPa	0.141 W/m/K
374.31 K, 4090 kPa	0.1233 W/m/K
374.32 K, 4093 kPa	0.1139 W/m/K
374.34 K, 4097 kPa	0.1057 W/m/K
374.36 K, 4100 kPa	0.0993 W/m/K
374.37 K, 4073 kPa	0.1974 W/m/K
374.37 K, 4074 kPa	0.1974 W/m/K
374.37 K, 4245 kPa	0.0643 W/m/K
374.37 K, 4270 kPa	0.0643 W/m/K
374.37 K, 4358 kPa	0.0641 W/m/K
374.38 K, 4078 kPa	0.1828 W/m/K
374.38 K, 4083 kPa	0.1742 W/m/K
374.38 K, 4105 kPa	0.0914 W/m/K
374.39 K, 4070 kPa	0.1644 W/m/K
374.4 K, 4110 kPa	0.0851 W/m/K
374.47 K, 4071 kPa	0.1096 W/m/K
374.5 K, 4533 kPa	0.0637 W/m/K
374.51 K, 4621 kPa	0.0635 W/m/K
374.52 K, 4710 kPa	0.0617 W/m/K
374.52 K, 4759 kPa	0.061 W/m/K
374.54 K, 4072 kPa	0.0831 W/m/K
374.57 K, 4073 kPa	0.0764 W/m/K
374.61 K, 4068 kPa	0.0674 W/m/K
374.66 K, 4063 kPa	0.0593 W/m/K
374.72 K, 4049 kPa	0.0529 W/m/K
374.76 K, 3717 kPa	0.0352 W/m/K
374.89 K, 4035 kPa	0.0494 W/m/K
374.92 K, 3675 kPa	0.0342 W/m/K
374.96 K, 4117 kPa	0.1232 W/m/K
374.96 K, 4119 kPa	0.1244 W/m/K
374.96 K, 4126 kPa	0.1244 W/m/K
374.97 K, 4112 kPa	0.1176 W/m/K
374.97 K, 4132 kPa	0.1198 W/m/K
374.99 K, 4107 kPa	0.1106 W/m/K
374.99 K, 10033 kPa	0.064 W/m/K
375 K, 4149 kPa	0.101 W/m/K
375.01 K, 8053 kPa	0.0615 W/m/K
375.03 K, 4099 kPa	0.091 W/m/K
375.03 K, 4155 kPa	0.091 W/m/K
375.03 K, 6045 kPa	0.0576 W/m/K
375.04 K, 888 kPa	0.0235 W/m/K
375.04 K, 4160 kPa	0.0861 W/m/K
375.06 K, 4168 kPa	0.0796 W/m/K
375.07 K, 4097 kPa	0.0773 W/m/K
375.1 K, 3544 kPa	0.0321 W/m/K
375.1 K, 3981 kPa	0.0428 W/m/K
375.1 K, 4185 kPa	0.0704 W/m/K
375.11 K, 4099 kPa	0.0671 W/m/K
375.13 K, 4199 kPa	0.0643 W/m/K
375.14 K, 3928 kPa	0.0409 W/m/K
375.14 K, 4132 kPa	0.1072 W/m/K
375.14 K, 4134 kPa	0.108 W/m/K
375.14 K, 4136 kPa	0.108 W/m/K
375.14 K, 4138 kPa	0.108 W/m/K
375.14 K, 4140 kPa	0.108 W/m/K
375.14 K, 4142 kPa	0.1072 W/m/K
375.14 K, 4144 kPa	0.1063 W/m/K
375.14 K, 4216 kPa	0.0612 W/m/K
375.15 K, 4130 kPa	0.1055 W/m/K
375.15 K, 4146 kPa	0.1047 W/m/K
375.15 K, 4148 kPa	0.1024 W/m/K
375.16 K, 4150 kPa	0.1009 W/m/K
375.16 K, 4153 kPa	0.0988 W/m/K
375.16 K, 4244 kPa	0.0586 W/m/K
375.17 K, 4157 kPa	0.0941 W/m/K
375.17 K, 4289 kPa	0.0565 W/m/K
375.18 K, 4030 kPa	0.0479 W/m/K
375.18 K, 4160 kPa	0.0916 W/m/K

From the NIST ThermoML archive (doi:10.1021/je900210h)
